What all share (format): biochemical
For assay [1], the target named is TYK2 (Homo sapiens, UniProt P29597). As to the kind of experiment: TYK2 kinase inhibition (Table A1).
Assay [2] concerns the target T1, Recombinant Human Anaplastic Lymphoma Kinase (Homo sapiens, UniProt Q9UM73).
T1 construct: purchased Invitrogen, Carlsbad, Calif
In words: ALK HTRF kinase assay. Conditions: for IC50: Table B1, cells without percent sign. Put shortly:
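Readout was HTRF between a Eu-W1024 anti-phosphotyrosine antibody and streptavidin-APC bound to biotinylated peptide phosphorylated by recombinant human ALK. IC50 values came from a four-parameter logistic fit.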
(In general: Time-resolved FRET reads energy transfer from a long-lived donor to a nearby acceptor.)

For assay [3], the target named is T2, human JAK3 (a.a. 781-1124) (Homo sapiens, UniProt P52333).
T2 construct: JAK3 (a.a. 781-1124); His tag (N); made in house; host or cells: insect cells (baculovirus)
As to the kind of experiment: In vitro JAK kinase assay (HTRF, phosphorylation of a biotinylated peptide), JAK3. The procedure, abridged: (§1)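 Kinase reactions ran at room temperature for 1 h with ATP matched per isoform (JAK1 90 μM, JAK2 30 μM, JAK3 3 μM). After an EDTA stop, the phosphorylated biotin-peptide was read by HTRF using Eu-Py20 and SA-APC after 40 min binding.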

Assay [4] addresses T3, human JAK2 (a.a. 828-1132) (Homo sapiens, UniProt O60674).
T3 construct: JAK2 (a.a. 828-1132); His tag (N); made in house; host or cells: insect cells (baculovirus)
As to the kind of experiment: In vitro JAK kinase assay (HTRF, phosphorylation of a biotinylated peptide), JAK2. The procedure, abridged:
as §1

Assay [5] has as its target T4, human JAK1 (a.a. 837-1142) (Homo sapiens, UniProt P23458).
T4 construct: human JAK1 (a.a. 837-1142); His tag (N); made in house; host or cells: insect cells (baculovirus)
As to the kind of experiment: In vitro JAK kinase assay (HTRF, phosphorylation of a biotinylated peptide), JAK1. Conditions: read-out: JAK1 IC50. Put shortly:
as §1

Setting [6] is: compound at a concentration of 500 nM or 1 mM (not specified), cells shown as percentage.

Counter-ions that a name gives are not always drawn. Like-named read-outs stand apart in the source and are kept apart here.

TYK2, sequence (P29597 whole entry): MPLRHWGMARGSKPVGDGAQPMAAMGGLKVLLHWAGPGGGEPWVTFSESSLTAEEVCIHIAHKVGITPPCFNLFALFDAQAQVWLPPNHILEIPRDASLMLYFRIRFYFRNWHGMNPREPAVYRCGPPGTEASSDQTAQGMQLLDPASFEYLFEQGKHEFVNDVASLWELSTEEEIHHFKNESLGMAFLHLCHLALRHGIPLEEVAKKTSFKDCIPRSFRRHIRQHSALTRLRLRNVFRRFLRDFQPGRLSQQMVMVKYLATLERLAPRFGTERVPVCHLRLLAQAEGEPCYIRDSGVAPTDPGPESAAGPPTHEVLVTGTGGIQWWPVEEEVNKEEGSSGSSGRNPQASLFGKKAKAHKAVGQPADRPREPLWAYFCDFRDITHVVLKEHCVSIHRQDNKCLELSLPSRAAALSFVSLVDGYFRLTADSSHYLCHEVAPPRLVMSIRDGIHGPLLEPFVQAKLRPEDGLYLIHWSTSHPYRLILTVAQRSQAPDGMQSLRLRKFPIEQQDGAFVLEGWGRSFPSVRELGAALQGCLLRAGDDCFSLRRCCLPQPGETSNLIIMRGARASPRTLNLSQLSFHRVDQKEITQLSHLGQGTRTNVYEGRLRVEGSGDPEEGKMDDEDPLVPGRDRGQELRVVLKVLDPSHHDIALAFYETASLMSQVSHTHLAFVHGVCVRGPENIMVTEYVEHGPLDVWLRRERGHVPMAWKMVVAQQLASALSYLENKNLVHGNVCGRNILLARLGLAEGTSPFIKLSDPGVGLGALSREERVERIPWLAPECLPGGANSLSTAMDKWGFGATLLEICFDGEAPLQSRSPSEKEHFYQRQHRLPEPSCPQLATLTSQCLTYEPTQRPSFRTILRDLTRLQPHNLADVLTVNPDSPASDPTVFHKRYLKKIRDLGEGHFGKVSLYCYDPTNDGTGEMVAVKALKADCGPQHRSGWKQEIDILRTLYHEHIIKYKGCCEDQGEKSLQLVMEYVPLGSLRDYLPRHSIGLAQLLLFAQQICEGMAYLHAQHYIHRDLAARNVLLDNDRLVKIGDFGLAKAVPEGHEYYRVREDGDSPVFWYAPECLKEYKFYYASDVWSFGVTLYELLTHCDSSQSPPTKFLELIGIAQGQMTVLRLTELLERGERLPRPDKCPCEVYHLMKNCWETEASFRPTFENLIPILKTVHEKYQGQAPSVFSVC
T1 sequence (Q9UM73 19-1620): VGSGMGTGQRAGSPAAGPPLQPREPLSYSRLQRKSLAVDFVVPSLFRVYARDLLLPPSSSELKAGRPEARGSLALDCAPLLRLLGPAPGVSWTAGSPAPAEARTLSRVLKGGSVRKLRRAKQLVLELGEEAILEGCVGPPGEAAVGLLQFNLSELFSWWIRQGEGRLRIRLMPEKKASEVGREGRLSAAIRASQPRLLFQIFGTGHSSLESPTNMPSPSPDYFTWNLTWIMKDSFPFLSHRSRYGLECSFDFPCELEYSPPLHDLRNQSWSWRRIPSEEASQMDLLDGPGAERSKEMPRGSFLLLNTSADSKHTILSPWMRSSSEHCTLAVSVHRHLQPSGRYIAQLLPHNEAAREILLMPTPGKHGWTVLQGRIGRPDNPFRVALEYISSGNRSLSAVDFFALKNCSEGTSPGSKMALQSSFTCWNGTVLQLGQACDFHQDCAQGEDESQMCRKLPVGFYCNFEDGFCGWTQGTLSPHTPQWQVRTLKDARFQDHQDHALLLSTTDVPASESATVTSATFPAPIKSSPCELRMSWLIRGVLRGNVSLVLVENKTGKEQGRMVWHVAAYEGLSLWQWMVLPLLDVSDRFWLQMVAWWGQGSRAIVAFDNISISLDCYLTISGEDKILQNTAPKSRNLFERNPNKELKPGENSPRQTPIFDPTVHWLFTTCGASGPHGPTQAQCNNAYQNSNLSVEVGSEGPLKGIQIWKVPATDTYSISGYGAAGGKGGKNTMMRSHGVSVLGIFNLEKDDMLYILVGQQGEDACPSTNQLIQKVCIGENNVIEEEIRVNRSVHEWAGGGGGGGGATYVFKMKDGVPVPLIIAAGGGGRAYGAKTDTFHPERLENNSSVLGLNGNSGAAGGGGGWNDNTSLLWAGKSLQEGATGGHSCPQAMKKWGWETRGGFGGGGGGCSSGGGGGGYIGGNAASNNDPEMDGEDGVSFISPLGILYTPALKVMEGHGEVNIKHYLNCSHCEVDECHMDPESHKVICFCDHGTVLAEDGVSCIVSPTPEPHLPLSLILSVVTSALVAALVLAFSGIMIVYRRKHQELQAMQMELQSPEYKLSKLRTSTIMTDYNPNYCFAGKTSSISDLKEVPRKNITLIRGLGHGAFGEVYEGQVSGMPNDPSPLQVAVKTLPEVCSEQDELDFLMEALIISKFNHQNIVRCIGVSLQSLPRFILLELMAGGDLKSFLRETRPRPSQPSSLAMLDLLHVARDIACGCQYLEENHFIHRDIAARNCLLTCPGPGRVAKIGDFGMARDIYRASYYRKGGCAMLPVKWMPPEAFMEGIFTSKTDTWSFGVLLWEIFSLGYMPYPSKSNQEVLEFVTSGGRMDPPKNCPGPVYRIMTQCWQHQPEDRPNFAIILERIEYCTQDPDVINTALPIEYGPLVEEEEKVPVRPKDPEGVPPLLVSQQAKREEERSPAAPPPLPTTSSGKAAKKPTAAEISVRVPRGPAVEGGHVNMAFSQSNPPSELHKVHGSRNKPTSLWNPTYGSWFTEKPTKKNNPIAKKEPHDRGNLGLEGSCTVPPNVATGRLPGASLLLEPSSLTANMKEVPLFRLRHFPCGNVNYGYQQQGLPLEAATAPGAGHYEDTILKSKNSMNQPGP
T3 sequence (O60674 828-1132): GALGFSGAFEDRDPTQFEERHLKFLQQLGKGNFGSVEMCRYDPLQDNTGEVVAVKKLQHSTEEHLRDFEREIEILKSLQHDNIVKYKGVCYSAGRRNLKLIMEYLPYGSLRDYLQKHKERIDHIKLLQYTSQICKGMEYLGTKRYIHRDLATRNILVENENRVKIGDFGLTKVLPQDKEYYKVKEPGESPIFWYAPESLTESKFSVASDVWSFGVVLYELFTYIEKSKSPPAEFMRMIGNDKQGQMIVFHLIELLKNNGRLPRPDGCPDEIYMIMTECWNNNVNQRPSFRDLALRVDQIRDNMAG
T2 sequence (P52333 781-1124): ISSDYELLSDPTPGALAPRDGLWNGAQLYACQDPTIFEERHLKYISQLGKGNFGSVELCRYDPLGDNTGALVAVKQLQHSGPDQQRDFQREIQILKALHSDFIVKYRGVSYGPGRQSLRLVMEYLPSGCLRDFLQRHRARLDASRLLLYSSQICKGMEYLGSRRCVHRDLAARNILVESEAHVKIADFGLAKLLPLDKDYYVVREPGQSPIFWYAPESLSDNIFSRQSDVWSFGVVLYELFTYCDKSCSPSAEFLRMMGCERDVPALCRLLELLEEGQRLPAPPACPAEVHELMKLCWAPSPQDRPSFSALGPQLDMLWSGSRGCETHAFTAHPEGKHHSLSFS
T4 sequence (P23458 849-1154): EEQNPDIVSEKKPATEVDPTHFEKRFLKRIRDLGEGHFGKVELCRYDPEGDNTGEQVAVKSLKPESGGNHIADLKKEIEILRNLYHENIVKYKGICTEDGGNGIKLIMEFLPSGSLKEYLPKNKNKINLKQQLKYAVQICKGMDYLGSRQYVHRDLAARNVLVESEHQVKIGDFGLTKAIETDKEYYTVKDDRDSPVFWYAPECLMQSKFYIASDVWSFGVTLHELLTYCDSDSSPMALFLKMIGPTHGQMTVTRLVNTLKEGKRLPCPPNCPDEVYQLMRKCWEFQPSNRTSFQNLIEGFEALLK

For the compound `Cn1cnc(S(=O)(=O)Nc2ccc3cc2CCc2cccc(c2)Nc2ncc(Cl)c(n2)N3)c1` [Example B144, N-[6-Chloro-2,4,8,22-tetraazatetracyclo[14.3.1.1(3,7).1(9,13)]docosa-1(20), 3(22),4,6,9(21),10,12,16,18-nonaen-12-yl]-1-methyl-1H-imidazole-4-sulfonamide bis(trifluoroacetate)], the IC50 (in general, the concentration that inhibits the measured activity by half) was determined as 0.5 nM in assay [1] (Table B1); 600 nM in assay [2]; 4.2 nM in assay [3] (Table B1); 0.2 nM in assay [4] (Table B1); 0.34 nM in assay [5] (Table B1).
Take `CC(C)(C)OC(=O)N1CC[C@@H](NC(=O)Nc2ccc3cc2CCc2cccc(c2)Nc2ncc(Cl)c(n2)N3)C1` [Example B174, tert-Butyl (3R)-3-[({[6-chloro-2,4,8,22-tetraazatetracyclo[14.3.1.1(3,7).1(9,13)]docosa-1(20),3(22),4,6,9(21),10,12,16,18-nonaen-12-yl]amino}carbonyl)amino]pyrrolidine-1-carboxylate]: the IC50 in assay [1] (Table B1) was 62 nM; in assay [3] (Table B1) it was 124 nM; in assay [4] (Table B1) it was 27 nM; in assay [5] (Table B1), 15 nM. Besides, the “ALK % of inhibition at a concentration of 500 nM or 1 mM” value (“ALK % of inhibition” for short) in assay [2] (setting [6]) is given as 12%.
For `O=C(Nc1ccccc1Cl)c1cc2cc(c1)Nc1nc(ncc1Cl)Nc1cccc(c1)CC2` [Example B14, 6-Chloro-N-(2-chlorophenyl)-2,4,8,22-tetraazatetracyclo[14.3.1.1(3,7).1(9,13)]docosa-1(20),3(22),4,6,9(21),10,12,16,18-nonaene-11-carboxamide trifluoroacetate], the half-inhibitory concentration (IC50) was more than 1000 nM in assay [1] (Table B1); more than 1000 nM in assay [2]; 314 nM in assay [3] (Table B1); 119 nM in assay [4] (Table B1); 232 nM in assay [5] (Table B1).
Consider `Cn1ccc2c(NC(=O)N3CCN(C(=O)COc4ccc5cc4CCc4cccc(c4)Nc4ncc(Cl)c(n4)N5)CC3)cccc21` [Example A11, 4-({[6-Chloro-2,4,8,22-tetraazatetracyclo[14.3.1.1(3,7).1(9,13)]docosa-1(20),3(22),4,6,9(21),10,12,16,18-nonaen-12-yl]oxy}acetyl)-N-(1-methyl-1H-indol-4-yl)piperazine-1-carboxamide trifluoroacetate], for which the IC50 came to 9.5 nM in assay [1]; 16 nM in assay [3] (method AA1 (3 μM ATP) or AA2 (1000 μM ATP), not stated per value); 5.6 nM in assay [4] (method AA1 (30 μM ATP) or AA2 (1000 μM ATP), not stated per value); 3.4 nM in assay [5] (method AA1 (90 μM ATP) or AA2 (1000 μM ATP), not stated per value). Further, the “ALK % of inhibition” value in assay [2] (compound at 500 nM or 1 mM, 90 μM ATP) is on record as 12%.
Take `O=C(Nc1ccc2cc1CCc1cncc(c1)Nc1ncc(Cl)c(n1)N2)N[C@H]1CCN(C(=O)c2ccn[nH]2)C1` [Example B268, N-[6-Chloro-2,4,8,18,22-pentaazatetracyclo[14.3.1.1(3,7).1(9,13)]docosa-1(20),3(22),4,6,9(21),10,12,16,18-nonaen-12-yl]-N′-[(3S)-1-(1H-pyrazol-5-ylcarbonyl)pyrrolidin-3-yl]urea bis(trifluoroacetate)]: the IC50 is 541 nM in assay [1] (Table B1), more than 10000 nM in assay [3] (Table B1), 273 nM in assay [4] (Table B1) and 9.8 nM in assay [5] (Table B1). The “ALK % of inhibition” value in assay [2] (setting [6]) was 16%.
Take `CN(Cc1ccc2cc1CCc1cncc(c1)Nc1ncc(Cl)c(n1)N2)C(=O)C1CCN(C(=O)Nc2ccccc2)CC1` [Example B337, N(4)-{[6-chloro-2,4,8,18,22-pentaazatetracyclo[14.3.1.1(3,7).1(9,13)]docosa-1(20),3(22),4,6,9(21),10,12,16,18-nonaen-12-yl]methyl}-N(4)-methyl-N(1)-phenylpiperidine-1,4-dicarboxamide bis(trifluoroacetate)]: the half-maximal inhibitory concentration (IC50) in assay [1] (Table B1) is more than 200 nM; in assay [3] (Table B1), more than 200 nM; in assay [4] (Table B1) it was 171 nM; in assay [5] (Table B1) it was 41 nM. The “ALK % of inhibition” value in assay [2] (percentage inhibition of the example compound at a concentration of 500 nM or 1 mM (not specified which)) is 21%.

(Values after patent publication US8871753B2, “Macrocyclic compounds and their use as kinase inhibitors” (Incyte Corporation, priority 2008, dated 2014).)
